Reference: US9056843B2, “Trifluoromethyl-oxadiazole derivatives and their use in the treatment of disease” (NOVARTIS AG, priority 2011, dated 2015)
Read-outs that look alike come from different tables or passages of the source.

Tests used:
Type in all cases: biochemical
Human recombinant HDAC4 = Human recombinant HDAC4 (Homo sapiens (Human), UniProt P56524); test: Test 2: HDAC4 assay (fluorogenic substrate, 5 μM acetyl-Gly-Ala-Lys(ε-trifluoroacetyl)-AMC); settings: Test 2 (values without asterisk)
Experimental: Test 2: HDAC4 Assay Description
(§1) Control wells with HDAC4 only (positive control) and without HDAC4 (negative control) were included on the microplate. Bovine trypsin (4.5 μl of a 300 nM solution) was added and the plate incubated for additional 15 minutes at room temperature. The plate was placed in a fluorescence microplate reader, and read at an excitation wavelength of 360 nm and an emission wavelength of 450 nm with a 10 nm bandpath. Fluorescence values for all wells containing HDAC4 (positive control and wells with test compound) were corrected by subtracting negative control fluorescence values, and IC50 values were calculated by fitting the dose-response curves to a 4-parameter logistic function.

[1] = molecular target: Human recombinant full length HDAC1 (Homo sapiens (Human), UniProt Q13547); test: Test 3: HDAC1 assay; settings: substrate 5 μM acetyl-Gly-Ala-Lys(acetyl)-AMC
Experimental: as §1
Test 3: HDAC1 Assay Description
A similar assay procedure as described in Test 2 was used for HDAC1. Human recombinant full length HDAC1 expressed in a baculovirus expression system was purchased from BPS BioSciences (San Diego, Calif., U.S.A.). The substrate used in the […] assay was 5 μM of acetyl-Gly-Ala-Lys(acetyl)-AMC.

[2] = molecular target: Human recombinant full length HDAC6 (Homo sapiens (Human), UniProt Q9UBN7); test: Test 4: HDAC6 assay
Experimental: as §1
Test 4: HDAC6 Assay Description
A similar assay procedure as described in Test 2 was used for HDAC6. Human recombinant full length HDAC6 expressed in a baculovirus expression system was purchased from BPS BioSciences (San Diego, Calif., U.S.A.). The substrate used in the […] assay was 5 μM of acetyl-Gly-Ala-Lys(acetyl)-AMC.

[3] = Test 4, substrate 5 μM acetyl-Gly-Ala-Lys(acetyl)-AMC

Human recombinant full length HDAC6, sequence (Q9UBN7 whole entry): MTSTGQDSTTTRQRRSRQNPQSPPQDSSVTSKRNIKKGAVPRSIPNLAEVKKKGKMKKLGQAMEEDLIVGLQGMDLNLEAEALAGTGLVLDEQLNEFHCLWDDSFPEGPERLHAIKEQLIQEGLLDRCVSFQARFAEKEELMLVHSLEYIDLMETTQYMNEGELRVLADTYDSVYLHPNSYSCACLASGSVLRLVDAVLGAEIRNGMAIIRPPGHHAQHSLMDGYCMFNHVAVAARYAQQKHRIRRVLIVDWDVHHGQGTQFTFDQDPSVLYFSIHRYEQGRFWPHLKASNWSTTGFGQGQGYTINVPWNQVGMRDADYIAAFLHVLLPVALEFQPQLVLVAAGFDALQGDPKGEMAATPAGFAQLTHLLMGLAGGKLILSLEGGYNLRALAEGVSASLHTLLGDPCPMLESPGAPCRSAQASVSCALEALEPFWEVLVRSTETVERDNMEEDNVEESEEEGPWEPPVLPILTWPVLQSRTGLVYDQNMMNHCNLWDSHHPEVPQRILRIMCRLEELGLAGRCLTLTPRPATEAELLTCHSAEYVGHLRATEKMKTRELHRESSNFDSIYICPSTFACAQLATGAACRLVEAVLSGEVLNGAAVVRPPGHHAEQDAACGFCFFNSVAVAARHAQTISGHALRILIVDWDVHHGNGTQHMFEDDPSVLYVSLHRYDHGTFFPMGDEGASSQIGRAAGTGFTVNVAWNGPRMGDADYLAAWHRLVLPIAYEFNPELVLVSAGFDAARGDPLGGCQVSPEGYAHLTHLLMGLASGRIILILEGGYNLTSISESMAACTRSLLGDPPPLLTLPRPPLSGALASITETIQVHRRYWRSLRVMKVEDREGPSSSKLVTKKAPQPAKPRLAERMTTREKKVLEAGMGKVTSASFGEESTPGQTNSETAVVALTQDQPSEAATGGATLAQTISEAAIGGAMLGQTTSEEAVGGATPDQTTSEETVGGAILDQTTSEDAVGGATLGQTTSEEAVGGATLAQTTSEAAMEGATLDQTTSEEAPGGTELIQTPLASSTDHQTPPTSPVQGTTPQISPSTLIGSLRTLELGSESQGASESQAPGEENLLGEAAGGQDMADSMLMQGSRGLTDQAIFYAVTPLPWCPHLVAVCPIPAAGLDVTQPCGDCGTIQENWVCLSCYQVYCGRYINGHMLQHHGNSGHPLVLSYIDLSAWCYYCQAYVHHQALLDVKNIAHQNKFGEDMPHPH
Human recombinant full length HDAC1, sequence (Q13547 whole entry): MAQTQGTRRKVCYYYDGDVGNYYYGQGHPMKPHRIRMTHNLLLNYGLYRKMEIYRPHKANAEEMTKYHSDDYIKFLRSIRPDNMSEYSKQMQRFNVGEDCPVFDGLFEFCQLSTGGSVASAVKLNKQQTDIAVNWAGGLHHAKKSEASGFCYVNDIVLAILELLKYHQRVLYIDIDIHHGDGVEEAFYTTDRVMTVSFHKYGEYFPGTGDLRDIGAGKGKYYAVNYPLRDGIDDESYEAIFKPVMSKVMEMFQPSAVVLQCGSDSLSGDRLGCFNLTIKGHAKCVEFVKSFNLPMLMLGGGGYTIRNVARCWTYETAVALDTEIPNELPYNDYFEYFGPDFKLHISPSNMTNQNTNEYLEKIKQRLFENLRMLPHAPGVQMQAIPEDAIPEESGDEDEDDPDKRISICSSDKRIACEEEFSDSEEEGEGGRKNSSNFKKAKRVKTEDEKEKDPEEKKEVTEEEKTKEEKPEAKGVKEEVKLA
Human recombinant HDAC4, sequence (P56524 2-1084): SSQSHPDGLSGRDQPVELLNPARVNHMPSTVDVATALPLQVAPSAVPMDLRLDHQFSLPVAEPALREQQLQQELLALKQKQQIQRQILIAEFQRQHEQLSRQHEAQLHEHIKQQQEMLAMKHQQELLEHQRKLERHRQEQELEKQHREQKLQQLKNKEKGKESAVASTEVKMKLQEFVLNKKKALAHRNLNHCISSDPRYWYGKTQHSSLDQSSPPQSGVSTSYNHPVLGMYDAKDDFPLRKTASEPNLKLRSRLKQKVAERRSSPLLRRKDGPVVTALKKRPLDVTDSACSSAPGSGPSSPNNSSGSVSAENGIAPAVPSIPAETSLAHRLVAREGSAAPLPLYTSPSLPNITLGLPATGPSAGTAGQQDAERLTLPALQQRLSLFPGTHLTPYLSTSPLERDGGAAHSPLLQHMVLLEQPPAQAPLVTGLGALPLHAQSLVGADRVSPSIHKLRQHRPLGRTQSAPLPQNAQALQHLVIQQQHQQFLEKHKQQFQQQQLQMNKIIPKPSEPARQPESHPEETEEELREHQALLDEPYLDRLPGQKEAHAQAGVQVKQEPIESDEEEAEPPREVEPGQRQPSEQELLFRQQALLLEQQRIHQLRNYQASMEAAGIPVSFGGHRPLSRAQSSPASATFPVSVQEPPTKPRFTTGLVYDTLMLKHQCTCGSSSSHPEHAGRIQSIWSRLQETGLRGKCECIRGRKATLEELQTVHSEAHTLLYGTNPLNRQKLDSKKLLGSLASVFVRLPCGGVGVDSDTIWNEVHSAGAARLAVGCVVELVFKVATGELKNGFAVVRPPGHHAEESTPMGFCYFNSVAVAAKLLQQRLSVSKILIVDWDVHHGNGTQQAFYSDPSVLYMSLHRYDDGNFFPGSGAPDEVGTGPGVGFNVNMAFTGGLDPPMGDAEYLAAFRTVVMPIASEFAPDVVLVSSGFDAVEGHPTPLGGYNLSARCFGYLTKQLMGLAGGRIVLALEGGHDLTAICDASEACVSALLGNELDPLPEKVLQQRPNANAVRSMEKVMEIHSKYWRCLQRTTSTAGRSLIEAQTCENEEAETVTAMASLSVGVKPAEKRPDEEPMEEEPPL

SMILES | IC50 (Human recombinant HDAC4) | IC50 [1] | IC50 [2, 3] | IC50 [2]
CC(C)C[C@H](CN(C)C)NC(=O)c1ccc(-c2noc(C(F)(F)F)n2)cc1 [Example 85, (R)—N-(1-(dimethylamino)-4-methylpentan-2-yl)-4-(5-(trifluoromethyl)-1,2,4-oxadiazol-3-yl)benzamide] | 48 nM | > 10 µM | > 10 µM | –
CCCCNC(=O)Cc1ccc(-c2noc(C(F)(F)F)n2)cc1 [Example 6, N-butyl-2-(4-(5-(trifluoromethyl)-1,2,4-oxadiazol-3-yl)phenyl)acetamide] | 630 nM | > 10 µM | 3.2 µM | –
COc1cc(NC(=O)c2ccc(-c3noc(C(F)(F)F)n3)cc2)ccn1 [Example 67, N-(2-methoxypyridin-4-yl)-4-(5-(trifluoromethyl)-1,2,4-oxadiazol-3-yl)benzamide] | 160 nM | > 10 µM | 8.3 µM | –
O=C(Cc1ccc(-c2noc(C(F)(F)F)n2)cc1)N1CCOCC1 [Example 9, 1-Morpholino-2-(4-(5-(trifluoromethyl)-1,2,4-oxadiazol-3-yl)phenyl)ethanone] | 850 nM | > 10 µM | 5.5 µM | –
O=C(c1ccc(-c2noc(C(F)(F)F)n2)cc1)N1CCC(Cc2ccccc2)CC1 [Example 43, (4-benzylpiperidin-1-yl)(4-(5-(trifluoromethyl)-1,2,4-oxadiazol-3-yl)phenvyl)methanone] | 290 nM | > 10 µM | > 10 µM | –
CNC(=O)c1ccc(-c2noc(C(F)(F)F)n2)cc1 [Example 2, N-Methyl-4-(5-(trifluoromethyl)-1,2,4-oxadiazol-3-yl)benzamide] | 530 nM | > 10 µM | 3.2 µM | –
C[C@@H](CN(C)C)NC(=O)c1ccc(-c2noc(C(F)(F)F)n2)cc1 [Example 82, (S)—N-(1-(dimethylamino)propan-2-yl)-4-(5-(trifluoromethyl)-1,2,4-oxadiazol-3-yl)benzamide] | 120 nM | > 10 µM | > 10 µM | –
CNC(=O)Cc1ccc(-c2noc(C(F)(F)F)n2)cc1 [Example 3, N-methyl-2-[4-(5-trifluoromethyl-[1,2,4]oxadiazol-3-yl)-phenyl]-acetamide] | 1900 nM | > 10 µM | > 10 µM | –
O=C(NCC1CCCCN1)c1ccc(-c2noc(C(F)(F)F)n2)cc1 (stereo not drawn) [Example 78, N-(piperidin-2-ylmethyl)-4-(5-(trifluoromethyl)-1,2,4-oxadiazol-3-yl)benzamide] | 30 nM | > 10 µM | 7 µM | –
O=C(NC1CCCCC1O)c1ccc(-c2noc(C(F)(F)F)n2)cc1 (stereo not drawn) [Example 61, N-(2-hydroxycyclohexyl)-4-(5-(trifluoromethyl)-1,2,4-oxadiazol-3-yl)benzamide] | 790 nM | > 10 µM | 7.1 µM | –
O=C(NC1CCC1)c1ccc(-c2noc(C(F)(F)F)n2)cc1 [Example 25, N-cyclobutyl-4-(5-(trifluoromethyl)-1,2,4-oxadiazol-3-yl)benzamide] | 470 nM | > 10 µM | 6.5 µM | –
O=C(NCCCO)c1ccc(-c2noc(C(F)(F)F)n2)cc1 [Example 17, N-(3-hydroxyypropyl)-4-(5-(trifluoromethyl)-1,2,4-oxadiazol-3-yl)benzamide] | 1400 nM | > 10 µM | – | 8.6 µM
CN(CCO)C(=O)c1ccc(-c2noc(C(F)(F)F)n2)cc1 [Example 15, N-(2-hydroxyethyl)-N-methyl-4-(5-(trifluoromethyl)-1,2,4-oxadiazol-3-yl)benzamide] | 990 nM | > 10 µM | > 10 µM | –
CN1C(C)(C)CC(NC(=O)c2ccc(-c3noc(C(F)(F)F)n3)cc2)CC1(C)C [Example 65, N-(1,2,2,6,6-pentamethylpiperidin-4-yl)-4-(5-(trifluoromethyl)-1,2,4-oxadiazol-3-yl)benzamide] | 240 nM | > 10 µM | 4.6 µM | –
CN(C)C[C@@H](Cc1ccccc1)NC(=O)c1ccc(-c2noc(C(F)(F)F)n2)cc1 [Example 92, (R)—N-(1-(dimethylamino)-3-phenylpropan-2-yl)-4-(5-(trifluoromethyl)-1,2,4-oxadiazol-3-yl)benzamide] | 85 nM | > 6.8 µM | 4 µM | –
CC(C)[C@H](CN(C)C)NC(=O)c1ccc(-c2noc(C(F)(F)F)n2)cc1F [Example 89, (R)—N-(1-(dimethylamino)-3-methylbutan-2-yl)-2-fluoro-4-(5-(trifluoromethyl)-1,2,4-oxadiazol-3-yl)benzamide] | 45 nM | > 10 µM | > 10 µM | –
O=C(N[C@@H]1CCNC1)c1ccc(-c2noc(C(F)(F)F)n2)cc1F [Example 95, (R)-2-fluoro-N-(pyyrrolidin-3-yl)-4-(5-(trifluoromethyl)-1,2,4-oxadiazol-3-yl)benzamide] | 160 nM | > 10 µM | 6.9 µM | –
Cc1cc(NC(=O)c2ccc(-c3noc(C(F)(F)F)n3)cc2F)cc(C)n1 [Example 90, N-(2,6-dimethylpyridin-4-yl)-2-fluoro-4-(5-(trifluoromethyl)-1,2,4-oxadiazol-3-yl)benzamide] | 440 nM | > 10 µM | 2.5 µM | –
CN1CCC(NC(=O)c2ccc(-c3noc(C(F)(F)F)n3)cc2)CC1 [Example 38, N-(1-methylpiperidin-4-yl)-4-(5-(trifluoromethyl)-1,2,4-oxadiazol-3-yl)benzamide] | 300 nM | > 10 µM | 3.9 µM | –
CC(C)(C)c1cc(NC(=O)c2ccc(-c3noc(C(F)(F)F)n3)cc2)ccn1 [Example 69, N-(2-(tert-butyl)pyridin-4-yl)-4-(5-(trifluoromethyl)-1,2,4-oxadiazol-3-yl)benzamide] | 290 nM | > 10 µM | 6.8 µM | –
CC(=O)N1CCC(NC(=O)c2ccc(-c3noc(C(F)(F)F)n3)cc2)CC1 [Example 64, N-(1-acetylpiperidin-4-yl)-4-(5-(trifluoromethyl)-1,2,4-oxadiazol-3-yl)benzamide] | 510 nM | > 10 µM | > 10 µM | –

More lines, main results first:

IC50 (Human recombinant HDAC4) | IC50 [1] | IC50 [2, 3] | SMILES | IC50 [2]
1.4 nM | 4.2 µM | 1.4 µM | CCCN(CCC)C[C@@H](C)NC(=O)c1ccc(-c2noc(C(F)(F)F)n2)cc1F [Example 141, (R)—N-(1-(dipropylamino)propan-2-yl)-2-fluoro-4-(5-(trifluoromethyl)-1,2,4-oxadiazol-3-yl)benzamide] | –
3200 nM | > 10 µM | > 10 µM | O=S(=O)(N[C@@H]1CCNC1)c1ccc(-c2noc(C(F)(F)F)n2)cc1 [Example 102, (R)—N-(pyrrolidin-3-yl)-4-(5-(trifluoromethyl)-1,2,4-oxadiazol-3-yl)benzenesulfonamide] | –
8.4 nM | > 10 µM | 2.4 µM | CCN(C[C@@H](C)NC(=O)c1ccc(-c2noc(C(F)(F)F)n2)cc1F)C(C)C [Example 152, (R)—N-(1-(ethyl(isopropyl)amino)propan-2-yl)-2-fluoro-4-(5-(trifluoromethyl)-1,2,4-oxadiazol-3-yl)benzamide] | –
10 nM | > 10 µM | > 10 µM | CCN(CC)C[C@H](NC(=O)c1ccc(-c2noc(C(F)(F)F)n2)cc1F)C(C)C [Example 135, (R)—N-(1-(diethylamino)-3-methylbutan-2-yl)-2-fluoro-4-(5-(trifluoromethyl)-1,2,4-oxadiazol-3-yl)benzamide] | –
5 nM | 9.2 µM | 8.3 µM | CCN(CC)C[C@@H](C)NC(=O)c1ccc(-c2noc(C(F)(F)F)n2)cc1 [Example 132, (R)—N-(1-(diethylamino)propan-2-yl)-4-(5-(trifluoromethyl)-1,2,4-oxadiazol-3-yl)benzamide] | –
40 nM | 6.1 µM | 3.4 µM | CNCCNC(=O)c1ccc(-c2noc(C(F)(F)F)n2)cc1 [Example 157, N-(2-(methylamino)ethyl)-4-(5-(trifluoromethyl)-1,2,4-oxadiazol-3-yl)benzamide] | –
93 nM | 5 µM | 0.74 µM | Cc1ccc(NS(=O)(=O)c2ccc(-c3noc(C(F)(F)F)n3)cc2)cc1 [Example 108, N-p-tolyl-4-(5-(trifluoromethyl)-1,2,4-oxadiazol-3-yl)benzenesulfonamide] | –
1.6 nM | 5.1 µM | 2.4 µM | CCCN(CC)C[C@@H](C)NC(=O)c1ccc(-c2noc(C(F)(F)F)n2)cc1F [Example 146, (R)—N-(1-(ethyl(propyl)amino)propan-2-yl)-2-fluoro-4-(5-(trifluoromethyl)-1,2,4-oxadiazol-3-yl)benzamide] | –
110 nM | 6.7 µM | 1.5 µM | CN(C)C[C@H](Cc1ccccc1)NC(=O)c1ccc(-c2noc(C(F)(F)F)n2)cc1F [Example 117, (S)—N-(1-(dimethylamino)-3-phenylpropan-2-yl)-2-fluoro-4-(5-(trifluoromethyl)-1,2,4-oxadiazol-3-yl)benzamide] | –
